In the kinase profiling compilation of Christmann-Franck et al. (2016):

Assays:
Test in all cases: KINOMEscan competition binding
Settings in all cases: compound 10.0 µM
PAK1 (human) = PAK1 (human) (UniProt Q13153)
PIP4K2B (human) = PIP4K2B (human) (UniProt P78356)
MAPK11 (human) = MAPK11 (human) (UniProt Q15759)
PDGFRA (human) = PDGFRA (human) (UniProt P16234)
IRAK3 (human) = IRAK3 (human) (UniProt Q9Y616)
CDK7 (human) = CDK7 (human) (UniProt P50613)
MAP2K1 (human) = MAP2K1 (human) (UniProt Q02750)
CLK2 (human) = CLK2 (human) (UniProt P49760)
STK33 (human) = STK33 (human) (UniProt Q9BYT3)
STK32B (human) = STK32B (human) (UniProt Q9NY57)
PTK2B (human) = PTK2B (human) (UniProt Q14289)
RPS6KA1 KD2 (human) = RPS6KA1 KD2 (human) (UniProt Q15418)
CSNK1E (human) = CSNK1E (human) (UniProt P49674)
DCLK1 (human) = DCLK1 (human) (UniProt O15075)
[1] = biological target: JAK3 JH1 catalytic (human) (UniProt P52333)
RIPK2 (human) = RIPK2 (human) (UniProt O43353)
AURKA (human) = AURKA (human) (UniProt O14965)
MARK1 (human) = MARK1 (human) (UniProt Q9P0L2)
ULK2 (human) = ULK2 (human) (UniProt Q8IYT8)
[2] = biological target: JAK1 JH2 pseudokinase (human) (UniProt P23458)
PHKG1 (human) = PHKG1 (human) (UniProt Q16816)
NTRK2 (human) = NTRK2 (human) (UniProt Q16620)
LATS2 (human) = LATS2 (human) (UniProt Q9NRM7)
[3] = test system: EGFR (human), P00533 [G719S]
TNNI3K (human) = TNNI3K (human) (UniProt Q59H18)
CDKL2 (human) = CDKL2 (human) (UniProt Q92772)
EPHA7 (human) = EPHA7 (human) (UniProt Q15375)
RPS6KA5 KD1 (human) = RPS6KA5 KD1 (human) (UniProt O75582)
MAP4K4 (human) = MAP4K4 (human) (UniProt O95819)
MAP4K5 (human) = MAP4K5 (human) (UniProt Q9Y4K4)
CAMK1G (human) = CAMK1G (human) (UniProt Q96NX5)
CSNK1G1 (human) = CSNK1G1 (human) (UniProt Q9HCP0)
STK17B (human) = STK17B (human) (UniProt O94768)
MAP2K3 (human) = MAP2K3 (human) (UniProt P46734)
CDK19 (human) = CDK19 (human) (UniProt Q9BWU1)
[4] = test system: EGFR (human), P00533 [L858R]
ACVRL1 (human) = ACVRL1 (human) (UniProt P37023)
MYO3A (human) = MYO3A (human) (UniProt Q8NEV4)
CSF1R (human) = CSF1R (human) (UniProt P07333)
[5] = test system: RET (human), P07949 [V804M]
ACVR1 (human) = ACVR1 (human) (UniProt Q04771)
DDR2 (human) = DDR2 (human) (UniProt Q16832)

PHKG1 (human), sequence (Q16816 whole entry, looked up): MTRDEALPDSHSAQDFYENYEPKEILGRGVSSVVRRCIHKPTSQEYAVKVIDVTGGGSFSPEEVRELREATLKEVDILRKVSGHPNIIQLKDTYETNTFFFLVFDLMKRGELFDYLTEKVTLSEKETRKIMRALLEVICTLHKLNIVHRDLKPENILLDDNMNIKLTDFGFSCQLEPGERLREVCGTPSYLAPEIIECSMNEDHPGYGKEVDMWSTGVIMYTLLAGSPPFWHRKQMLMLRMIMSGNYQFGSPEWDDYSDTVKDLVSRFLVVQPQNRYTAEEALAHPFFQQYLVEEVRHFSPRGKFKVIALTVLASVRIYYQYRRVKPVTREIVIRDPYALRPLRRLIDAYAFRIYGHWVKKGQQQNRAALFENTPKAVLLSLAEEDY
MAP2K3 (human), sequence (P46734 whole entry, looked up): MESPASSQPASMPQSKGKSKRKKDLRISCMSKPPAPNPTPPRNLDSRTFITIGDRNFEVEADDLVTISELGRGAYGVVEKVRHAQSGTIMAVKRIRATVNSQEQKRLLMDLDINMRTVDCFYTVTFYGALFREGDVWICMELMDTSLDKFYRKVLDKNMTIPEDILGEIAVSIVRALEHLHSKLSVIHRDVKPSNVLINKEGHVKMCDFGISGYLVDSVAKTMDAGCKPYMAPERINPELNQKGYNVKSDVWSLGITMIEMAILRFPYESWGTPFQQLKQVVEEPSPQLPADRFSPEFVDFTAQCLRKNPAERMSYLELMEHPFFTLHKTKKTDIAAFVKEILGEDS
MARK1 (human), sequence (Q9P0L2 whole entry, looked up): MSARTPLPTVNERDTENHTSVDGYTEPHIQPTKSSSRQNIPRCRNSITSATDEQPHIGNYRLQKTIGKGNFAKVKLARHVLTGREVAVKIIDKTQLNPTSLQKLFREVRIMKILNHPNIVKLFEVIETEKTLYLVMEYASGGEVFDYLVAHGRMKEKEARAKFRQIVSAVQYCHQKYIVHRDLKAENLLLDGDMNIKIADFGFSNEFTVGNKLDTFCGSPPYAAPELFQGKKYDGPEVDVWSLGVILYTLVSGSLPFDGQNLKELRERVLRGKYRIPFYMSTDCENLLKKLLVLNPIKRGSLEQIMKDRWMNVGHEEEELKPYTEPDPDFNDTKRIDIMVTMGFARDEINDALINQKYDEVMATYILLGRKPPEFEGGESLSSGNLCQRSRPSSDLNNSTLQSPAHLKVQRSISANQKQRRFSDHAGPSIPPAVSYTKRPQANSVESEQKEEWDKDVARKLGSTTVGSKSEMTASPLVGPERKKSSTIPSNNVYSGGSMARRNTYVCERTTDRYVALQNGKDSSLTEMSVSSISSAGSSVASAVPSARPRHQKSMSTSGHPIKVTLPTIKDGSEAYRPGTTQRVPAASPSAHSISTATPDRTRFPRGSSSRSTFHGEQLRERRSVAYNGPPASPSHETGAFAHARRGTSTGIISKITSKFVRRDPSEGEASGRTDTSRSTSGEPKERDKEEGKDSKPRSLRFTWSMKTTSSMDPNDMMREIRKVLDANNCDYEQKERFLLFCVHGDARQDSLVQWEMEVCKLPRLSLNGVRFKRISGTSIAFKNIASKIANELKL
PDGFRA (human), sequence (P16234 whole entry, looked up): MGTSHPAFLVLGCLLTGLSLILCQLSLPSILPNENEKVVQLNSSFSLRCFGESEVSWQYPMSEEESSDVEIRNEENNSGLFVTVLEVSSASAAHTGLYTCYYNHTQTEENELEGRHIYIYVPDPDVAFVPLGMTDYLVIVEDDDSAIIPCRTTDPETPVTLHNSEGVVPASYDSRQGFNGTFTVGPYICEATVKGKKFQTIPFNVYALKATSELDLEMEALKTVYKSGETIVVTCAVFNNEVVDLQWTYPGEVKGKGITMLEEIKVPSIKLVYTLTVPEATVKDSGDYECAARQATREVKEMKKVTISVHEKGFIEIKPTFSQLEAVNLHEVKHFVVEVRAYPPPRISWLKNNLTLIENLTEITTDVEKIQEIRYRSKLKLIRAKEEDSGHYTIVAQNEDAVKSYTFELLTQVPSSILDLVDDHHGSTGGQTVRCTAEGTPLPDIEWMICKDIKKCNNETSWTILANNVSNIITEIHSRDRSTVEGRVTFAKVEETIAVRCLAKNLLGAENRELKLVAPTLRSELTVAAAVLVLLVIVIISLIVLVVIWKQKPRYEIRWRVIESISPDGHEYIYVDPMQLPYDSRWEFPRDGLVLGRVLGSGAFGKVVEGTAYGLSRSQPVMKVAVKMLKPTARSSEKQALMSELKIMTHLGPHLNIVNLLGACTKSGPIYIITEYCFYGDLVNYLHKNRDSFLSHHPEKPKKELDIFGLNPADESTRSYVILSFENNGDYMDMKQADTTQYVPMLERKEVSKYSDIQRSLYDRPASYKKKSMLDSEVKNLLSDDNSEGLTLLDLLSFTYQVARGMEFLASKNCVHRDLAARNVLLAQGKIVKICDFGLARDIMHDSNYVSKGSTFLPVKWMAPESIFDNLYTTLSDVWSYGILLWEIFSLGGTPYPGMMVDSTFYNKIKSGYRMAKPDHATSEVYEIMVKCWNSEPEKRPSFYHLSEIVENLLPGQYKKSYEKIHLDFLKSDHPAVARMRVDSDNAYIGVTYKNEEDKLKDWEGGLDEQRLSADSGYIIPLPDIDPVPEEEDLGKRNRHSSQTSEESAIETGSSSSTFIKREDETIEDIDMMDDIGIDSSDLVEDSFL
ACVRL1 (human), sequence (P37023 whole entry, looked up): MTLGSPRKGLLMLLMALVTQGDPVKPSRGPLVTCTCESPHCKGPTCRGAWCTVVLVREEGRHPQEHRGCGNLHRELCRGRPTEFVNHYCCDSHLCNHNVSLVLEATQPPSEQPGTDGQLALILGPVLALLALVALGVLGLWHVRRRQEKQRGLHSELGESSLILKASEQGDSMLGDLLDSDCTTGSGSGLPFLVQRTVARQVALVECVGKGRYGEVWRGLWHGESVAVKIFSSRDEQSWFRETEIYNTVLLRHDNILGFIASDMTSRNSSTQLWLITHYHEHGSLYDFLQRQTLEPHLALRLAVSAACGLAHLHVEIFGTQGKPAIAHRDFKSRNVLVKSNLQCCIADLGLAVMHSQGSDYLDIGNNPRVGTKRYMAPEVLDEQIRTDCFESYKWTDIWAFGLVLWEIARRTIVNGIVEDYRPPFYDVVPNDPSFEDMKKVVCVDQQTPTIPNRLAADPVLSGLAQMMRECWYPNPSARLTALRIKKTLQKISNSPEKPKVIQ
ACVR1 (human), sequence (Q04771 whole entry, looked up): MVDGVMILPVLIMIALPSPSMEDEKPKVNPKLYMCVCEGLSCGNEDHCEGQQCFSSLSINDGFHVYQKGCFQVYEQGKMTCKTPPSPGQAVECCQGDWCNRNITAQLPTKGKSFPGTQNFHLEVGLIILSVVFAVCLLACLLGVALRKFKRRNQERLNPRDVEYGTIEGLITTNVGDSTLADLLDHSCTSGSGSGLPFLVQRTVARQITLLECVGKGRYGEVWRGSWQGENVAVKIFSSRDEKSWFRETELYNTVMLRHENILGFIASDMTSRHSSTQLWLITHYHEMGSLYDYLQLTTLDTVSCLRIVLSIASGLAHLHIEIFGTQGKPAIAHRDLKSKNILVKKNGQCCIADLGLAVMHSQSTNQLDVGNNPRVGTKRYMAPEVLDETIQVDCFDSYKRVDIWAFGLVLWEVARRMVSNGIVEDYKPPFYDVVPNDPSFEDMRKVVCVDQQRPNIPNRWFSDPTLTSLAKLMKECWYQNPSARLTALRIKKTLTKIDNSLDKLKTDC
STK33 (human), sequence (Q9BYT3 whole entry, looked up): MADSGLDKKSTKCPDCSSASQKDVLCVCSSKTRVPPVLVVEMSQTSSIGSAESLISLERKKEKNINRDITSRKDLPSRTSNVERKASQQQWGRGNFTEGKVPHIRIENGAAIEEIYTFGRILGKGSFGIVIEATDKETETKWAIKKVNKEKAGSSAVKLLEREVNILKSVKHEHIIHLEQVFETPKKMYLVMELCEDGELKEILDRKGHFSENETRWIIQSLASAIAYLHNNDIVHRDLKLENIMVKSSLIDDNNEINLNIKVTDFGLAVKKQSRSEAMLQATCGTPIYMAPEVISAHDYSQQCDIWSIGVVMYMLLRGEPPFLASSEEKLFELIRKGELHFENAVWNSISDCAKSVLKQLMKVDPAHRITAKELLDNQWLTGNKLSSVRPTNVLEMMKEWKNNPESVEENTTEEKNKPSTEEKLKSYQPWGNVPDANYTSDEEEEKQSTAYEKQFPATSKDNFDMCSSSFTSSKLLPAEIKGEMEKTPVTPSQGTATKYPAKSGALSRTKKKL
DCLK1 (human), sequence (O15075 whole entry, looked up): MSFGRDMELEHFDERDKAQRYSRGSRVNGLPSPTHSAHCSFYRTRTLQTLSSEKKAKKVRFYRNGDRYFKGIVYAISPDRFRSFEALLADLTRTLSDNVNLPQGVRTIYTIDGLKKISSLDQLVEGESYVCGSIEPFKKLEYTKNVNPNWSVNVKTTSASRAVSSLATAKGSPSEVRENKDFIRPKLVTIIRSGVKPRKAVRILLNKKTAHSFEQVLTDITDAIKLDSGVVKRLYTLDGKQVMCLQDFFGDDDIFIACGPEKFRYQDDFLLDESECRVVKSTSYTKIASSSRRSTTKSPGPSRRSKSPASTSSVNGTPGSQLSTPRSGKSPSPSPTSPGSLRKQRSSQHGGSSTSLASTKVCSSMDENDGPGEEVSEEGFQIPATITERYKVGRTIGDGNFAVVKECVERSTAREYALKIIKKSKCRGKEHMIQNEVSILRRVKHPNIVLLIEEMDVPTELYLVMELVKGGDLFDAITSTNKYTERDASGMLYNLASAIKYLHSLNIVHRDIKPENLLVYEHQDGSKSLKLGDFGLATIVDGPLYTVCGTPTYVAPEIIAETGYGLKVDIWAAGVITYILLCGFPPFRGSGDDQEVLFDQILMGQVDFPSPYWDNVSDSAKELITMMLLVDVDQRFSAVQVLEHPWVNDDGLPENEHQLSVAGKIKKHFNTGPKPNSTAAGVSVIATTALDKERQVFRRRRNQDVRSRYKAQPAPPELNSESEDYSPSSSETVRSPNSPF

How did the kinase still bound, per cent of control (PAK1 (human)) turn out when `CCOc1cc(N2CCC(N3CCCCC3)CC2)ccc1Nc1nc(Nc2ccccc2S(=O)(=O)C(C)C)c2cn[nH]c2n1` was run?
Its kinase still bound, per cent of control is 90%.

And the kinase still bound, per cent of control (PIP4K2B (human))?
Its kinase still bound, per cent of control is 100%.

And the kinase still bound, per cent of control (MAPK11 (human))?
The kinase still bound, per cent of control was 100%.

What about the kinase still bound, per cent of control (PDGFRA (human)) of the same compound?
Its kinase still bound, per cent of control is 100%.

What about the kinase still bound, per cent of control (IRAK3 (human)) of the same compound?
The kinase still bound, per cent of control was 100%.

And the kinase still bound, per cent of control (CDK7 (human))?
Its kinase still bound, per cent of control is 42%.

What about the kinase still bound, per cent of control (MAP2K1 (human)) of the same compound?
Its kinase still bound, per cent of control is 100%.

What about the kinase still bound, per cent of control (CLK2 (human)) of the same compound?
Its kinase still bound, per cent of control is 2.2%.

What about the kinase still bound, per cent of control (STK33 (human)) of the same compound?
The kinase still bound, per cent of control was 15%.

And the kinase still bound, per cent of control (STK32B (human))?
The kinase still bound, per cent of control was 64%.

And the kinase still bound, per cent of control (PTK2B (human))?
Its kinase still bound, per cent of control is 5%.

What about the kinase still bound, per cent of control (RPS6KA1 KD2 (human)) of the same compound?
Its kinase still bound, per cent of control is 14%.

And the kinase still bound, per cent of control (CSNK1E (human))?
Its kinase still bound, per cent of control is 74%.

And the kinase still bound, per cent of control (DCLK1 (human))?
Its kinase still bound, per cent of control is 5.2%.

And the kinase still bound, per cent of control [1]?
The kinase still bound, per cent of control was 84%.

What about the kinase still bound, per cent of control (RIPK2 (human)) of the same compound?
Its kinase still bound, per cent of control is 100%.

And the kinase still bound, per cent of control (AURKA (human))?
The kinase still bound, per cent of control was 100%.

What about the kinase still bound, per cent of control (MARK1 (human)) of the same compound?
Its kinase still bound, per cent of control is 100%.

And the kinase still bound, per cent of control (ULK2 (human))?
The kinase still bound, per cent of control was 3.4%.

And the kinase still bound, per cent of control [2]?
Its kinase still bound, per cent of control is 1.3%.

What about the kinase still bound, per cent of control (PHKG1 (human)) of the same compound?
Its kinase still bound, per cent of control is 24%.

And the kinase still bound, per cent of control (NTRK2 (human))?
Its kinase still bound, per cent of control is 59%.

And the kinase still bound, per cent of control (LATS2 (human))?
Its kinase still bound, per cent of control is 88%.

What about the kinase still bound, per cent of control [3] of the same compound?
The kinase still bound, per cent of control was 100%.

And the kinase still bound, per cent of control (TNNI3K (human))?
Its kinase still bound, per cent of control is 100%.

What about the kinase still bound, per cent of control (CDKL2 (human)) of the same compound?
Its kinase still bound, per cent of control is 91%.

What about the kinase still bound, per cent of control (EPHA7 (human)) of the same compound?
The kinase still bound, per cent of control was 100%.

And the kinase still bound, per cent of control (RPS6KA5 KD1 (human))?
Its kinase still bound, per cent of control is 100%.

What about the kinase still bound, per cent of control (MAP4K4 (human)) of the same compound?
The kinase still bound, per cent of control was 100%.

What about the kinase still bound, per cent of control (MAP4K5 (human)) of the same compound?
Its kinase still bound, per cent of control is 58%.

What about the kinase still bound, per cent of control (CAMK1G (human)) of the same compound?
Its kinase still bound, per cent of control is 26%.

And the kinase still bound, per cent of control (CSNK1G1 (human))?
Its kinase still bound, per cent of control is 71%.

What about the kinase still bound, per cent of control (STK17B (human)) of the same compound?
Its kinase still bound, per cent of control is 100%.

And the kinase still bound, per cent of control (MAP2K3 (human))?
The kinase still bound, per cent of control was 7%.

And the kinase still bound, per cent of control (CDK19 (human))?
Its kinase still bound, per cent of control is 100%.

What about the kinase still bound, per cent of control [4] of the same compound?
Its kinase still bound, per cent of control is 6.6%.

And the kinase still bound, per cent of control (ACVRL1 (human))?
The kinase still bound, per cent of control was 100%.

And the kinase still bound, per cent of control (MYO3A (human))?
The kinase still bound, per cent of control was 38%.

What about the kinase still bound, per cent of control (CSF1R (human)) of the same compound?
The kinase still bound, per cent of control was 99%.

And the kinase still bound, per cent of control [5]?
Its kinase still bound, per cent of control is 100%.

What about the kinase still bound, per cent of control (ACVR1 (human)) of the same compound?
The kinase still bound, per cent of control was 60%.

And the kinase still bound, per cent of control (DDR2 (human))?
Its kinase still bound, per cent of control is 93%.
